Read-outs that look alike come from different tables or passages of the source.
Legend:
Human Cot = Human Cot (Homo sapiens (Human), UniProt P41279); assay: High Throughput Cot Biochemical Assay; conditions: Cot HTRF (TR-FRET) biochemical assay
TNFα = assay: Cot Monocyte TNFα Cell Based Assay
[1] = Homo sapiens, Monocyte, read-out: EC50 TNF, LPS-stimulated human monocytes, TNFα
[2] = read-out: EC50 TNF, LPS-stimulated human monocytes, TNFα

Human Cot, sequence (P41279 30-397): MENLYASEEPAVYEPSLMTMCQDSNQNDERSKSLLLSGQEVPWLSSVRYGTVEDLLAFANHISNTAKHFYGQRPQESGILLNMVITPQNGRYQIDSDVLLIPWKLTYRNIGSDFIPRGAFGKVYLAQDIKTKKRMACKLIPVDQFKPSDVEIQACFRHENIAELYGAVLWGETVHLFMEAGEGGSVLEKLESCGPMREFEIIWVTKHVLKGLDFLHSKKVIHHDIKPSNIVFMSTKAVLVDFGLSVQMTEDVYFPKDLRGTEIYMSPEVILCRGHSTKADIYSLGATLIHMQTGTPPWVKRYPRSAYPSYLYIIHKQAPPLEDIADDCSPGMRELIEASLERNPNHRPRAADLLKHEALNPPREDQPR

SMILES | IC50 (Human Cot; IC50 HTRF) [nM] | EC50 (TNFα; [1]) [nM] | IC50 (Human Cot; read-out: IC50 HTRF) [nM] | EC50 (TNFα; [2]) [nM]
[2H]C(Nc1cc(Cl)c2ncc(C#N)c(NCC(C)(C)C)c2c1)(c1cn(C2CC2)nn1)c1ccc(F)nc1F (stereo not drawn) [Example 103, 8-chloro-6-(((1-cyclopropyl-1H-1,2,3-triazol-4-yl)(2,6-difluoropyridin-3-yl)methyl-d)amino)-4-(neopentylamino)quinoline-3-carbonitrile] | 3 | 133 |  | 
[2H][C@@](Nc1cc(Cl)c2ncc(C#N)c(NCC(C)(C)C)c2c1)(c1cn(C2CC2)nn1)c1cccnc1F [Example 104, (S)-8-chloro-6-(((1-cyclopropyl-1H-1,2,3-triazol-4-yl)(2-fluoropyridin-3-yl)methyl-d)amino)-4-(neopentyl-amino)quinoline-3-carbonitrile] | 1 | 99 |  | 
[2H]C([2H])([2H])C([2H])([2H])[C@@H](Nc1c(C#N)cnc2c(Cl)cc(N[C@@]([2H])(c3ccc(F)nc3)c3cn(C4CC4)nn3)cc12)c1ccccc1 [Example 106, 8-chloro-6-(((S)-(1-cyclopropyl-1H-1,2,3-triazol-4-yl)(6-fluoropyridin-3-yl)methyl-d)amino)-4-(((R)-1-phenylpropyl-2,2,3,3,3-d5)amino)-quinoline-3-carbonitrile] | 2 | 76 |  | 
[2H]C([2H])([2H])C([2H])([2H])[C@@]([2H])(Nc1c(C#N)cnc2c(Cl)cc(N[C@@]([2H])(c3ccc(F)nc3)c3cn(C4CC4)nn3)cc12)c1ccccc1 [Example 109, 8-chloro-6-(((S)-(1-cyclopropyl-1H-1,2,3-triazol-4-yl)(6-fluoropyridin-3-yl)methyl-d)amino)-4-(((R)-1-phenylpropyl-1,2,2,3,3,3-d6)amino)quinoline-3-carbonitrile] | 2 | 54 |  | 
[2H][C@](Nc1cc(Cl)c2ncc(C#N)c(N[C@H](CC)c3ccccc3)c2c1)(c1ccc(F)nc1)c1cn(C(C)(C)C)nn1 [Example 118, 6-(((S)-(1-(tert-butyl)-1H-1,2,3-triazol-4-yl)(6-fluoropyridin-3-yl)methyl-d)amino)-8-chloro-4-(((R)-1-phenylpropyl)amino)quinoline-3-carbonitrile] | 6 | 150 |  | 
CC[C@@H](Nc1c(C#N)cnc2c(F)cc(N[C@@H](c3ccc(F)nc3)c3cn(C4CC4)nn3)cc12)c1ccccc1 [Example 120, 6-(((S)-(-cyclopropyl-1H-1,2,3-triazol-4-yl)(6-fluoropyridin-3-yl)methyl-d)amino)-8-fluoro-4-(((R)-1-phenylpropyl)amino)quinolme-3-carbonitrile] |  |  | 5 | 137
[2H]C(Nc1cc(Cl)c2ncc(C#N)c(N[C@H](CCO)c3ccccc3)c2c1)(c1ccc(F)nc1)c1cn(C2CC2)nn1 (stereo partly drawn) [Example 121, 8-chloro-6-(((1-cyclopropyl-1H-1,2,3-triazol-4-yl)(6-fluoropyridin-3-yl)methyl-d)amino)-4-(((R)-3-hydroxy-1-phenylpropyl)amino)quinoline-3-carbonitrile] | 7 | 171 |  | 
[2H]C(Nc1cc(Cl)c2ncc(C#N)c(N[C@H](CC)c3ccccc3)c2c1)(c1cn(C2CC2)nn1)c1cc(C#N)cs1 (stereo partly drawn) [Example 123, 8-chloro-6-(((4-cyanothiophen-2-yl)(1-cyclopropyl-1H-1,2,3-triazol-4-yl)methyl-d)amino)-4-(((R)-1-phenylpropyl)amino)quinoline-3-carbonitrile] | 6 | 193 |  | 
CC[C@@H](Nc1c(C#N)cnc2c(Cl)cc(NC(c3cn(C4CC4)nn3)c3cccnc3Cl)cc12)c1ccccc1 (stereo partly drawn) [Example 124, 8-chloro-6-(((2-chloropyridin-3-yl)(1-cyclopropyl-1H-1,2,3-triazol-4-yl)methyl-d)amino)-4-(((R)-1-phenylpropyl)amino)quinolme-3-carbonitrile] |  |  | 8 | 376
[2H]C(Nc1cc(Cl)c2ncc(C#N)c(NCC(C)(C)C)c2c1)(c1cn(C2CC2)nn1)c1cccnc1Cl (stereo not drawn) [Example 126, 8-chloro-6-(((2-chloropyridin-3-yl)(1-cyclopropyl-1H-1,2,3-triazol-4-yl)methyl-d)amino)-4-(neopentylamino)quinoline-3-carbonitrile] | 3 | 146 |  | 
[2H][C@](Nc1cc(Cl)c2ncc(C#N)c(Nc3c(F)ccc(Cl)c3F)c2c1)(c1ccc(F)nc1)c1cn(C2CC2)nn1 [Example 127, (S)-8-chloro-4-((3-chloro-2,6-difluorophenyl)amino)-6-(((1-cyclopropyl-1H-1,2,3-triazol-4-yl)(6-fluoropyridin-3-yl)methyl-d)amino)quinoline-3-carbonitrile] | 16 | 194 |  | 
[2H][C@](Nc1cc(Cl)c2ncc(C#N)c(N[C@@H](CC#N)c3ccccc3)c2c1)(c1ccc(F)nc1)c1cn(C2CC2)nn1 [Example 128, 8-chloro-4-(((S)-2-cyano-1-phenylethyl)amino)-6-(((S)-(1-cyclopropyl-1H-1,2,3-triazol-4-yl)(6-fluoropyridin-3-yl)methyl-d)amino)quinoline-3-carbonitrile] | 698 | > 10000 |  | 
Cc1ncccc1[C@H](Nc1cc(Cl)c2ncc(C#N)c(NCC(C)(C)C)c2c1)c1cn(C2CC2)nn1 [Example 131, (S)-8-chloro-6-(((1-cyclopropyl-1H-1,2,3-triazol-4-yl)(2-methylpyridin-3-yl)methyl)amino)-4-(neopentyl-amino)quinoline-3-carbonitrile] | 2 | 49 |  | 

Continued, in another order:

IC50 (Human Cot; IC50 HTRF) [nM] | EC50 (TNFα; [1]) [nM] | SMILES | IC50 (Human Cot; read-out: IC50 HTRF) [nM] | EC50 (TNFα; [2]) [nM]
3 | 461 | [2H]C(Nc1cc(Cl)c2ncc(C#N)c(NCC(C)(C)C)c2c1)(c1cn(C2CC2)nn1)c1scnc1C (stereo not drawn) [Example 102, 8-chloro-6-(((1-cyclopropyl-1H-1,2,3-triazol-4-yl)(4-methylthiazol-5-yl)methyl-d)amino)-4-(neopentyl-amino)quinoline-3-carbonitrile] |  | 
3 | 144 | [2H][C@@](Nc1cc(Cl)c2ncc(C#N)c(N[C@H](CC)c3ccccc3)c2c1)(c1cn(C2CC2)nn1)c1cccnc1F [Example 105, 8-chloro-6-(((S)-(1-cyclopropyl-1H-1,2,3-triazol-4-yl)(2-fluoropyridin-3-yl)methyl-d)amino)-4-(((R)-1-phenylpropyl)amino)quinoline-3-carbonitrile] |  | 
182 | > 10000 | [2H]C([2H])([2H])C([2H])([2H])[C@H](Nc1c(C#N)cnc2c(Cl)cc(N[C@@]([2H])(c3ccc(F)nc3)c3cn(C4CC4)nn3)cc12)c1ccccc1 [Example 107, 8-chloro-6-(((S)-(1-cyclopropyl-1H-1,2,3-triazol-4-yl)(6-fluoropyridin-3-yl)methyl-d)amino)-4-(((S)-1-phenyl-propyl-2,2,3,3,3-d5)amino)quinoline-3-carbonitrile] |  | 
913 | > 10000 | [2H]C([2H])([2H])C([2H])([2H])[C@@H](Nc1c(C#N)cnc2c(Cl)cc(N[C@]([2H])(c3ccc(F)nc3)c3cn(C4CC4)nn3)cc12)c1ccccc1 [Example 108, 8-chloro-6-(((R)-(1-cyclopropyl-1H-1,2,3-triazol-4-yl)(6-fluoropyridin-3-yl)methyl-d)amino)-4-(((R)-1-phenyl-propyl-2,2,3,3,3-d5)amino)quinoline-3-carbonitrile] |  | 
10 | 233 | [2H]C(Nc1cc(Cl)c2ncc(C#N)c(NCC(C)(C)C)c2c1)(c1cn(C2CC2)nn1)c1cc(F)cnc1C (stereo not drawn) [Example 114, 8-chloro-6-(((1-cyclopropyl-1H-1,2,3-triazol-4-yl)(5-fluoro-2-methylpyridin-3-yl)methyl-d)amino)-4-(neopentylamino)quinoline-3-carbonitrile] |  | 
5 | 119 | [2H]C([2H])([2H])C([2H])([2H])C(Nc1c(C#N)cnc2c(Cl)cc(N[C@@]([2H])(c3ccc(F)nc3)c3cn(C4CC4)nn3)cc12)c1ccccc1 (stereo partly drawn) [Example 115, 8-chloro-6-(((S)-(1-cyclopropyl-1H-1,2,3-triazol-4-yl)(6-fluoropyridin-3-yl)methyl-d)amino)-4-((1-phenylpropyl-2,2,3,3,3-d5)amino)quinoline-3-carbonitrile] |  | 
3 | 144 | [2H][C@](Nc1cc(C#N)c2ncc(C#N)c(NCC(C)(C)C)c2c1)(c1ccc(F)nc1)c1cn(C2CC2)nn1 [Example 116, (S)-6-(((1-cyclopropyl-1H-1,2,3-triazol-4-yl)(6-fluoropyridin-3-yl)methyl-d)amino)-4-(neopentylamino)quinoline-3,8-dicarbonitrile] |  | 
3 | 94 | [2H][C@](Nc1cc(C#N)c2ncc(C#N)c(N[C@H](CC)c3ccccc3)c2c1)(c1ccc(F)nc1)c1cn(C2CC2)nn1 [Example 117, 6-(((S)-(-cyclopropyl-1H-1,2,3-triazol-4-yl)(6-fluoropyridin-3-yl)methyl-d)amino)-4-(((R)-1-phenylpropyl)amino)quinoline-3,8-dicarbonitrile] |  | 
6 | 240 | [2H]C(Nc1cc(Cl)c2ncc(C#N)c(N[C@H](CC)c3ccccc3)c2c1)(c1cn(C2CC2)nn1)c1ccc(Cl)nc1C (stereo partly drawn) [Example 122, 8-chloro-6-(((6-chloro-2-methylpyridin-3-yl)(1-cyclopropyl-1H-1,2,3-triazol-4-yl)methyl-d)amino)-4-(((R)-1-phenylpropyl)amino)quinoline-3-carbonitrile] |  | 
3 | 78 | [2H]C(Nc1cc(Cl)c2ncc(C#N)c(NCC(C)(C)C)c2c1)(c1cn(C2CC2)nn1)c1ccc(Cl)nc1C (stereo not drawn) [Example 125, 8-chloro-6-(((6-chloro-2-methylpyridin-3-yl)(1-cyclopropyl-1H-1,2,3-triazol-4-yl)methyl-d)amino)-4-(neopentylamino)quinoline-3-carbonitrile] |  | 
2 | 81 | [2H][C@](Nc1cc(Cl)c2ncc(C#N)c(N[C@H](CC#N)c3ccccc3)c2c1)(c1ccc(F)nc1)c1cn(C2CC2)nn1 [Example 129, 8-chloro-4-(((R)-2-cyano-1-phenylethyl)amino)-6-(((S)-(1-cyclopropyl-1H-1,2,3-triazol-4-yl)(6-fluoropyridin-3-yl)methyl-d)amino)quinoline-3-carbonitrile] |  | 

Source: patent US11066414B2, “Cot modulators and methods of use thereof” (Gilead Sciences, Inc., priority 2015, dated 2021)
